From the kinase profiling compilation of Christmann-Franck et al. (2016)
Blank lines part the entries; values can stand above or below the molecule they belong to.

What was measured:
[1] = target: DYRK1B (human) (UniProt Q9Y463); assay: KINOMEscan competition binding; conditions: compound 10.0 µM
[2] = target: DAPK1 (human) (UniProt P53355); assay: KINOMEscan competition binding; conditions: compound 10.0 µM
[3] = target: PLK4 (human) (UniProt O00444); assay: KINOMEscan competition binding; conditions: compound 10.0 µM
[4] = target: PIM3 (human) (UniProt Q86V86); assay: KINOMEscan competition binding; conditions: compound 10.0 µM
[5] = target: CHUK (human) (UniProt O15111); assay: KINOMEscan competition binding; conditions: compound 10.0 µM
[6] = target: CLK1 (human) (UniProt P49759); assay: KINOMEscan competition binding; conditions: compound 10.0 µM
[7] = target: PIM1 (human) (UniProt P11309); assay: KINOMEscan competition binding; conditions: compound 10.0 µM
[8] = target: PIM2 (human) (UniProt Q9P1W9); assay: KINOMEscan competition binding; conditions: compound 10.0 µM
[9] = target: HIPK1 (human) (UniProt Q86Z02); assay: KINOMEscan competition binding; conditions: compound 10.0 µM
[10] = target: CDK16 (human) (UniProt Q00536); assay: KINOMEscan competition binding; conditions: compound 10.0 µM
[11] = target: MAP2K3 (human) (UniProt P46734); assay: KINOMEscan competition binding; conditions: compound 10.0 µM
[12] = target: CLK2 (human) (UniProt P49760); assay: KINOMEscan competition binding; conditions: compound 10.0 µM
[13] = target: TYK2 JH2 pseudokinase (human) (UniProt P29597); assay: KINOMEscan competition binding; conditions: compound 10.0 µM
[14] = target: TAOK3 (human) (UniProt Q9H2K8); assay: KINOMEscan competition binding; conditions: compound 10.0 µM
[15] = target: GSK3A (human) (UniProt P49840); assay: KINOMEscan competition binding; conditions: compound 10.0 µM
[16] = target: MAPK15 (human) (UniProt Q8TD08); assay: KINOMEscan competition binding; conditions: compound 10.0 µM
[17] = target: GSK3B (human) (UniProt P49841); assay: KINOMEscan competition binding; conditions: compound 10.0 µM
[18] = target: CLK4 (human) (UniProt Q9HAZ1); assay: KINOMEscan competition binding; conditions: compound 10.0 µM
[19] = target: IKBKB (human) (UniProt O14920); assay: KINOMEscan competition binding; conditions: compound 10.0 µM
[20] = target: CDK7 (human) (UniProt P50613); assay: KINOMEscan competition binding; conditions: compound 10.0 µM
[21] = target: TGFBR2 (human) (UniProt P37173); assay: KINOMEscan competition binding; conditions: compound 10.0 µM
[22] = target: STK17A (human) (UniProt Q9UEE5); assay: KINOMEscan competition binding; conditions: compound 10.0 µM
[23] = target: TAOK1 (human) (UniProt Q7L7X3); assay: KINOMEscan competition binding; conditions: compound 10.0 µM
[24] = target: STK17B (human) (UniProt O94768); assay: KINOMEscan competition binding; conditions: compound 10.0 µM
[25] = target: DAPK2 (human) (UniProt Q9UIK4); assay: KINOMEscan competition binding; conditions: compound 10.0 µM
[26] = target: DAPK3 (human) (UniProt O43293); assay: KINOMEscan competition binding; conditions: compound 10.0 µM
[27] = target: PIM1 (human) (UniProt P11309); assay: SelectScreen, TR FRET
[28] = target: PIM2 (human) (UniProt Q9P1W9); assay: SelectScreen, TR FRET
[29] = target: CHEK2 (human) (UniProt O96017); assay: KINOMEscan competition binding; conditions: compound 10.0 µM
[30] = target: CAMK2D (human) (UniProt Q13557); assay: KINOMEscan competition binding; conditions: compound 10.0 µM
[31] = target: STK33 (human) (UniProt Q9BYT3); assay: KINOMEscan competition binding; conditions: compound 10.0 µM
[32] = target: TNK1 (human) (UniProt Q13470); assay: KINOMEscan competition binding; conditions: compound 10.0 µM
[33] = target: PIK3CD (human) (UniProt O00329); assay: KINOMEscan competition binding; conditions: compound 10.0 µM
[34] = target: DCLK3 (human) (UniProt Q9C098); assay: KINOMEscan competition binding; conditions: compound 10.0 µM
[35] = target: PRKD1 (human) (UniProt Q15139); assay: KINOMEscan competition binding; conditions: compound 10.0 µM
[36] = target: ALK (human) (UniProt Q9UM73); assay: KINOMEscan competition binding; conditions: compound 10.0 µM
[37] = target: RPS6KA1 KD2 (human) (UniProt Q15418); assay: KINOMEscan competition binding; conditions: compound 10.0 µM
[38] = target: NUAK1 (human) (UniProt O60285); assay: KINOMEscan competition binding; conditions: compound 10.0 µM
[39] = target: ULK1 (human) (UniProt O75385); assay: KINOMEscan competition binding; conditions: compound 10.0 µM
[40] = target: SGK110 (human) (UniProt P0C264); assay: KINOMEscan competition binding; conditions: compound 10.0 µM
[41] = target: PLK1 (human) (UniProt P53350); assay: KINOMEscan competition binding; conditions: compound 10.0 µM
[42] = target: FGFR4 (human) (UniProt P22455); assay: KINOMEscan competition binding; conditions: compound 10.0 µM
[43] = test system: ABL1 (human), P00519 [F317L]; assay: KINOMEscan competition binding; conditions: compound 10.0 µM
[44] = target: PRKD2 (human) (UniProt Q9BZL6); assay: KINOMEscan competition binding; conditions: compound 10.0 µM
[45] = test system: ABL1 (human), P00519 [F317I]; assay: KINOMEscan competition binding; conditions: compound 10.0 µM
[46] = target: CSF1R (human) (UniProt P07333); assay: KINOMEscan competition binding; conditions: compound 10.0 µM
[47] = target: CAMKK2 (human) (UniProt Q96RR4); assay: KINOMEscan competition binding; conditions: compound 10.0 µM
[48] = target: ROS1 (human) (UniProt P08922); assay: KINOMEscan competition binding; conditions: compound 10.0 µM
[49] = target: TTK (human) (UniProt P33981); assay: KINOMEscan competition binding; conditions: compound 10.0 µM
[50] = target: CAMK2A (human) (UniProt Q9UQM7); assay: KINOMEscan competition binding; conditions: compound 10.0 µM
[51] = target: NUAK2 (human) (UniProt Q9H093); assay: KINOMEscan competition binding; conditions: compound 10.0 µM
[52] = target: GAK (human) (UniProt O14976); assay: KINOMEscan competition binding; conditions: compound 10.0 µM
[53] = target: ULK2 (human) (UniProt Q8IYT8); assay: KINOMEscan competition binding; conditions: compound 10.0 µM
[54] = target: PIK3CG (human) (UniProt P48736); assay: KINOMEscan competition binding; conditions: compound 10.0 µM
[55] = target: MKNK2 (human) (UniProt Q9HBH9); assay: KINOMEscan competition binding; conditions: compound 10.0 µM
[56] = target: DCLK1 (human) (UniProt O15075); assay: KINOMEscan competition binding; conditions: compound 10.0 µM
[57] = target: PTK6 (human) (UniProt Q13882); assay: KINOMEscan competition binding; conditions: compound 10.0 µM
[58] = target: PTK2 (human) (UniProt Q05397); assay: KINOMEscan competition binding; conditions: compound 10.0 µM
[59] = target: PHKG2 (human) (UniProt P15735); assay: KINOMEscan competition binding; conditions: compound 10.0 µM
[60] = target: MAPK7 (human) (UniProt Q13164); assay: KINOMEscan competition binding; conditions: compound 10.0 µM
[61] = target: RPS6KA6 KD2 (human) (UniProt Q9UK32); assay: KINOMEscan competition binding; conditions: compound 10.0 µM
[62] = target: DCLK2 (human) (UniProt Q8N568); assay: KINOMEscan competition binding; conditions: compound 10.0 µM
[63] = target: FER (human) (UniProt P16591); assay: KINOMEscan competition binding; conditions: compound 10.0 µM
[64] = target: PRKD3 (human) (UniProt O94806); assay: KINOMEscan competition binding; conditions: compound 10.0 µM
[65] = target: MYLK (human) (UniProt Q15746); assay: KINOMEscan competition binding; conditions: compound 10.0 µM
[66] = target: CAMK2G (human) (UniProt Q13555); assay: KINOMEscan competition binding; conditions: compound 10.0 µM
[67] = target: FRK (human) (UniProt P42685); assay: KINOMEscan competition binding; conditions: compound 10.0 µM
[68] = target: RPS6KA2 KD2 (human) (UniProt Q15349); assay: KINOMEscan competition binding; conditions: compound 10.0 µM
[69] = target: TNK2 (human) (UniProt Q07912); assay: KINOMEscan competition binding; conditions: compound 10.0 µM

Chain of PIM2 (human) (Q9P1W9 whole entry, looked up): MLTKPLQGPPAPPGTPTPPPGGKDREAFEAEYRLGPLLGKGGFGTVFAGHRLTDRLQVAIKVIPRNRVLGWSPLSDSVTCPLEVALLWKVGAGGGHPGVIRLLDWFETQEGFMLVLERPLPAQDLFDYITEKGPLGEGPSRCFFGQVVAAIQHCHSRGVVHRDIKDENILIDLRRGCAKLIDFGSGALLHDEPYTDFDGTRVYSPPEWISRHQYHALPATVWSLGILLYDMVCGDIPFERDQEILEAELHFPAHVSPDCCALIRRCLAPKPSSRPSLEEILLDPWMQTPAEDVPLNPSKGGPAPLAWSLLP
Chain of TAOK3 (human) (Q9H2K8 whole entry, looked up): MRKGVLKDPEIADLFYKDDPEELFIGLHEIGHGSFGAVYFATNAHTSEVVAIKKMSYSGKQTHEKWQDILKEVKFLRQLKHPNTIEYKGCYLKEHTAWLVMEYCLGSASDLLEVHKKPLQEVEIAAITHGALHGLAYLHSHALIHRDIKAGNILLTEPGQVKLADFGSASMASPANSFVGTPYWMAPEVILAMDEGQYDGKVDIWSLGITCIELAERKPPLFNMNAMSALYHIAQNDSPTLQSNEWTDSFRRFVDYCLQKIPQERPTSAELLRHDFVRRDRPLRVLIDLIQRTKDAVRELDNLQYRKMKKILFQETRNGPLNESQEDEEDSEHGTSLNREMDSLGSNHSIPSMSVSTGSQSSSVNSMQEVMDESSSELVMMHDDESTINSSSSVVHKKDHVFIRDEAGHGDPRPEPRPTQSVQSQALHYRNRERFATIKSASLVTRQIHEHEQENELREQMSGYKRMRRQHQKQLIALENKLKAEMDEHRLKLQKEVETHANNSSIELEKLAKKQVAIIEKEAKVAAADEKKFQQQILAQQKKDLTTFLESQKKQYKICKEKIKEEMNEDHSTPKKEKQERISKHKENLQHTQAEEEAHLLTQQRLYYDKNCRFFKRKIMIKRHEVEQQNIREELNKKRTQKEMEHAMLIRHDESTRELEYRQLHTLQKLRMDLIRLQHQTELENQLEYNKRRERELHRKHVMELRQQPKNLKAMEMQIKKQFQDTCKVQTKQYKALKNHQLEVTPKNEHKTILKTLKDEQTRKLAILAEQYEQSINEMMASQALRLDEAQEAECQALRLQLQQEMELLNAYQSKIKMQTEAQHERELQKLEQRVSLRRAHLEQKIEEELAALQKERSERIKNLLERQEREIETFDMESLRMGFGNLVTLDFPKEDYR
Chain of TAOK1 (human) (Q7L7X3 whole entry, looked up): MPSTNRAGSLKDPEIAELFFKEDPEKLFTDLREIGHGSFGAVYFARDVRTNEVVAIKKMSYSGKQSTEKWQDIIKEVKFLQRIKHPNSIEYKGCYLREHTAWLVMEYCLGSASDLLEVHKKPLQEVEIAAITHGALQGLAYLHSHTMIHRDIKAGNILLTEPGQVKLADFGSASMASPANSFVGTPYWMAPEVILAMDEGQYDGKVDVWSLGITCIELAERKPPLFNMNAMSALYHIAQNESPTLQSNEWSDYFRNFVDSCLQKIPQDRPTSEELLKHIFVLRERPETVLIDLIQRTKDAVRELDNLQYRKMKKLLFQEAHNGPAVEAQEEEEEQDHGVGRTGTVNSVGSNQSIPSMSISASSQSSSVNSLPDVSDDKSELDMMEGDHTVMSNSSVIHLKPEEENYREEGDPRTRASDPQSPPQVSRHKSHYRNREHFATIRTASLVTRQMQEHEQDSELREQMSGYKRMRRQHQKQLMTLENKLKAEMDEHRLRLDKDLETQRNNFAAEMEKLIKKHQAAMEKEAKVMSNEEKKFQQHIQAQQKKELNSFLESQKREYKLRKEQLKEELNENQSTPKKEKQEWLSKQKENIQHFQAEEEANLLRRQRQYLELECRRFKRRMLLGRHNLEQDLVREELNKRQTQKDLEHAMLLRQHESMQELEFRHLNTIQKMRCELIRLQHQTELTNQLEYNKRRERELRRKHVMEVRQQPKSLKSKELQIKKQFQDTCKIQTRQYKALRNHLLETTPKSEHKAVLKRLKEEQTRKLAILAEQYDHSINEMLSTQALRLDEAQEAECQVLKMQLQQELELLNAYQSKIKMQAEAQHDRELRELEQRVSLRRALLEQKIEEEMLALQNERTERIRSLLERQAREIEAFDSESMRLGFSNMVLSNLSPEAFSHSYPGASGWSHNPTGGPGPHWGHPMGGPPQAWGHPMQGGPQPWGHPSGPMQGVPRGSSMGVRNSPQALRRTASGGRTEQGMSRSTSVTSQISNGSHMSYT
Chain of PLK4 (human) (O00444 whole entry, looked up): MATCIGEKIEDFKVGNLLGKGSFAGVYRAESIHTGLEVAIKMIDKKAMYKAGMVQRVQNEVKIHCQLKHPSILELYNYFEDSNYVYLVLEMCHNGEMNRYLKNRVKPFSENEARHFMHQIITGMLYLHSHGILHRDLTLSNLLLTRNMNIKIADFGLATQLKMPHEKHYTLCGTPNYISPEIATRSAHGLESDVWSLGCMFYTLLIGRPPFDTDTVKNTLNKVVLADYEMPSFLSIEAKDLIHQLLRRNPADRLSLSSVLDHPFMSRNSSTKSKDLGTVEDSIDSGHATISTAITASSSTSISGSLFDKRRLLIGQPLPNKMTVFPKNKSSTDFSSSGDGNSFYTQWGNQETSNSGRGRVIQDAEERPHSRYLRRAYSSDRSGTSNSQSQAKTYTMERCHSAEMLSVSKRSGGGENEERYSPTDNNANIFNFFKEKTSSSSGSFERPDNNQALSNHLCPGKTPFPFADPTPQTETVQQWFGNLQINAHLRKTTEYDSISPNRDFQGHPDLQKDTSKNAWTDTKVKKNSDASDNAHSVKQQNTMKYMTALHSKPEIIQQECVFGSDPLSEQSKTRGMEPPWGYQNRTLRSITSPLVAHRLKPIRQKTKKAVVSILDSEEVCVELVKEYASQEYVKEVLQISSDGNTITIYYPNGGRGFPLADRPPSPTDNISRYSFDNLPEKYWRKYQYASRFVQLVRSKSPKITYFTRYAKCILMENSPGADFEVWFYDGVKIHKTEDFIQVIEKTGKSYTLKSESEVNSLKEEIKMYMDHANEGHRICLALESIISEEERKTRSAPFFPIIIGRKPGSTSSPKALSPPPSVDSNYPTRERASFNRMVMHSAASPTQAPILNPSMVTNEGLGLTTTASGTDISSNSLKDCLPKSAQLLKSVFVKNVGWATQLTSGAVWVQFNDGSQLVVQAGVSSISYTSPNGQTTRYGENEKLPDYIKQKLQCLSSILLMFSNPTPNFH
Chain of PIM1 (human) (P11309 whole entry, looked up): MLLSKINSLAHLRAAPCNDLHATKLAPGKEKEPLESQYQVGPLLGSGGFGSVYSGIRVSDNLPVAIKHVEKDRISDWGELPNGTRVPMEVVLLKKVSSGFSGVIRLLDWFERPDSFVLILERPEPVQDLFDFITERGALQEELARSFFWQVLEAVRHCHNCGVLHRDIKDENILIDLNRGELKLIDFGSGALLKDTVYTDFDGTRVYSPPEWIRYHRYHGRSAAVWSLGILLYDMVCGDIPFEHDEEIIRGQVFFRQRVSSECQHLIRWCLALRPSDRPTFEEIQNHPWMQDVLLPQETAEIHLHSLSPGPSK
Chain of PTK2 (human) (Q05397 whole entry, looked up): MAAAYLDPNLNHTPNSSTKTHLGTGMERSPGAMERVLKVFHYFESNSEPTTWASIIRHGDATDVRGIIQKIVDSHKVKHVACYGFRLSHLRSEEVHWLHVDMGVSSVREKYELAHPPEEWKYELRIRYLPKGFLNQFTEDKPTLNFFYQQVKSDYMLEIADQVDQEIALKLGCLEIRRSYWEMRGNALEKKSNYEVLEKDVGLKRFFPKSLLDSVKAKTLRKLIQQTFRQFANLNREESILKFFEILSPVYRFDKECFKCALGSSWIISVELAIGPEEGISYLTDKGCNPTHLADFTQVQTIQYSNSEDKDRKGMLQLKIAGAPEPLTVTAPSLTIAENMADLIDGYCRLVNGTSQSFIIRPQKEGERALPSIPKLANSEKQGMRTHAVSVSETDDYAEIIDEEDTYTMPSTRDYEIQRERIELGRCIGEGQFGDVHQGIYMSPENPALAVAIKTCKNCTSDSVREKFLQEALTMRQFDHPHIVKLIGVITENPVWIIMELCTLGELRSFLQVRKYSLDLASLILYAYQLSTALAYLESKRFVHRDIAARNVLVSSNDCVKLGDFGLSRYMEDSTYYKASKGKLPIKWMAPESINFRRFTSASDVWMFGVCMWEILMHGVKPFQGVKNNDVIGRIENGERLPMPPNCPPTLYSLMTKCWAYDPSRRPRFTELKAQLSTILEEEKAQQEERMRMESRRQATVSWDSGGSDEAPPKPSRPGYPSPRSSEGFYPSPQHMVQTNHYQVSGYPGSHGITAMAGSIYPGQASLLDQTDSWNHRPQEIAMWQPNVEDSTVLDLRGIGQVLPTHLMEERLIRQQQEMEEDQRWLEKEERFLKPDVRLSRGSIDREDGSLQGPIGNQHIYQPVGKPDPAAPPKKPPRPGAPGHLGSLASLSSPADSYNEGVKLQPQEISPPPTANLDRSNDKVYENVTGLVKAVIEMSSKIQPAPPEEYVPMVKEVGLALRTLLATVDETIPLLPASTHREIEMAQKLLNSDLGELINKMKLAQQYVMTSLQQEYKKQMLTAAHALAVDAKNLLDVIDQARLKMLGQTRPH
Chain of CDK16 (human) (Q00536 whole entry, looked up): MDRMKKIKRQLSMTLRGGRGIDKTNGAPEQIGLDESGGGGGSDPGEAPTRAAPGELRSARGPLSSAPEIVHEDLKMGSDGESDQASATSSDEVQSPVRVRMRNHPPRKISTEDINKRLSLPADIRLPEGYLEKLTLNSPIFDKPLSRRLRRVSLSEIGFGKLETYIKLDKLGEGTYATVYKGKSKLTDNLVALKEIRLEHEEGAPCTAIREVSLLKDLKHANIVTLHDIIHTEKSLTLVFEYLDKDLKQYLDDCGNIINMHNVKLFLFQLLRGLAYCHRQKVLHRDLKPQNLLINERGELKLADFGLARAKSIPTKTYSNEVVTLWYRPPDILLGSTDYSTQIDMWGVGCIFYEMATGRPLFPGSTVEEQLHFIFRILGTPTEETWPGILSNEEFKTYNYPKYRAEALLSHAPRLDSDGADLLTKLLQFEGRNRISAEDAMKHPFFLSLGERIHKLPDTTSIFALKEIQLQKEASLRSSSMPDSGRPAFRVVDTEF

- kinase still bound, per cent of control [1]: 33%
- kinase still bound, per cent of control [2]: 15%
- kinase still bound, per cent of control [3]: 21%
- kinase still bound, per cent of control [4]: 3.7%
- kinase still bound, per cent of control [5]: 27%
- kinase still bound, per cent of control [6]: 26%
- kinase still bound, per cent of control [7]: 3.4%
- kinase still bound, per cent of control [8]: 1.2%
- kinase still bound, per cent of control [9]: 0.2%
- kinase still bound, per cent of control [10]: 9.4%
- kinase still bound, per cent of control [11]: 5.8%
- kinase still bound, per cent of control [12]: 16%
- kinase still bound, per cent of control [13]: 34%
- kinase still bound, per cent of control [14]: 6.6%
- kinase still bound, per cent of control [15]: 4.3%
- kinase still bound, per cent of control [17]: 30%
- kinase still bound, per cent of control [18]: 28%
- kinase still bound, per cent of control [19]: 29%
- kinase still bound, per cent of control [20]: 15%
- kinase still bound, per cent of control [21]: 7.8%
- kinase still bound, per cent of control [22]: 0.45%
- kinase still bound, per cent of control [23]: 0.3%
- kinase still bound, per cent of control [24]: 2.2%
- kinase still bound, per cent of control [25]: 5.1%
- kinase still bound, per cent of control [26]: 14%
- IC50 [27]: 1750 nM
- IC50 [28]: 590 nM
Compound: N=C1NC(=O)/C(=C/c2ccc(-c3ccc(F)cc3)o2)S1
- kinase still bound, per cent of control [16]: 0.95%

- kinase still bound, per cent of control [29]: 30%
- kinase still bound, per cent of control [30]: 23%
- kinase still bound, per cent of control [3]: 6.8%
- kinase still bound, per cent of control [31]: 8.8%
- kinase still bound, per cent of control [32]: 0.4%
- kinase still bound, per cent of control [33]: 33%
- kinase still bound, per cent of control [34]: 16%
- kinase still bound, per cent of control [35]: 3.8%
- kinase still bound, per cent of control [36]: 16%
- kinase still bound, per cent of control [37]: 18%
- kinase still bound, per cent of control [38]: 7.6%
- kinase still bound, per cent of control [39]: 2.9%
- kinase still bound, per cent of control [40]: 30%
- kinase still bound, per cent of control [41]: 9.8%
- kinase still bound, per cent of control [42]: 5.6%
- kinase still bound, per cent of control [43]: 17%
- kinase still bound, per cent of control [44]: 0.55%
- kinase still bound, per cent of control [45]: 5%
- kinase still bound, per cent of control [46]: 16%
- kinase still bound, per cent of control [47]: 15%
- kinase still bound, per cent of control [48]: 7.6%
- kinase still bound, per cent of control [49]: 26%
- kinase still bound, per cent of control [50]: 32%
- kinase still bound, per cent of control [51]: 14%
- kinase still bound, per cent of control [52]: 9.8%
- kinase still bound, per cent of control [14]: 2%
- kinase still bound, per cent of control [53]: 0.5%
- kinase still bound, per cent of control [54]: 31%
- kinase still bound, per cent of control [55]: 0%
- kinase still bound, per cent of control [56]: 0.65%
- kinase still bound, per cent of control [57]: 7.6%
- kinase still bound, per cent of control [58]: 16%
- kinase still bound, per cent of control [59]: 29%
- kinase still bound, per cent of control [60]: 0%
- kinase still bound, per cent of control [61]: 4.9%
- kinase still bound, per cent of control [62]: 0.45%
- kinase still bound, per cent of control [63]: 32%
- kinase still bound, per cent of control [23]: 4.8%
- kinase still bound, per cent of control [64]: 5.4%
- kinase still bound, per cent of control [65]: 13%
- kinase still bound, per cent of control [66]: 31%
- kinase still bound, per cent of control [67]: 2.6%
- kinase still bound, per cent of control [68]: 15%
- kinase still bound, per cent of control [69]: 3.2%
Compound: COc1cc(N2CCN(C)CC2)ccc1Nc1ncc2c(n1)N(C)c1ccccc1C(=O)N2C
